Test: solvent given as SMILES

Cc1ccc(C2=C3C=C(I)C=[N+]3[B-](F)(F)n3cccc32)cc1
emission maximum (in C1CCCCC1): 540 nm | emission maximum (in CC#N): 546 nm | emission maximum (in CCO): 547 nm | emission maximum (in CCOC(C)=O): 543 nm | emission maximum (in CO): 546.5 nm | emission maximum (in OCC(F)(F)F): 538.5 nm

c1ccc2c(c1)[nH]c1ccccc12
emission maximum (in CC#N): 340 nm | emission maximum (in CCCCCC): 332 nm | emission maximum (in CCO): 339 nm

CC1=N/C(=C\c2ccncc2)C(=O)N1C
emission maximum (in C1COCCO1): 439 nm | emission maximum (in CC#N): 452 nm | emission maximum (in CCO): 453 nm | emission maximum (in CCOC(C)=O): 442 nm | emission maximum (in O): 464 nm

F[B-]1(F)n2c(c3c(c2-c2ccccc2)C2C=CC3CC2)C(c2ccccc2)=C2C3=C(C(c4ccccc4)=[N+]21)C1C=CC3CC1 (stereo not given)
emission maximum (in ClCCl): 588 nm

CCCCCOc1cc2oc(=O)c3c4occc4c4ccc5cccc6c(c1)c2c3c4c56
emission maximum (in C1CCOC1): 433 nm

N#Cc1c(-n2c3ccccc3c3cc(Br)ccc32)c(C#N)c(-n2c3ccccc3c3cc(Br)ccc32)c(-n2c3ccccc3c3cc(Br)ccc32)c1-n1c2ccccc2c2cc(Br)ccc21
emission maximum (in Cc1ccccc1): 515 nm

COC(=O)C(NC(=O)OC(C)(C)C)c1ccc2oc(-c3cc(OC)c(OC)cc3OC)nc2c1 (stereo not given)
emission maximum (in CC1CCCCC1): 357 nm | emission maximum (in CC#N): 383 nm | emission maximum (in CO): 389 nm

COc1ccccc1C1=C2C(C)=CC(C)=[N+]2[B-](F)(F)n2c(C)cc(C)c21
emission maximum (in C1CCOC1): 516 nm | emission maximum (in CC#N): 512 nm | emission maximum (in CC(=O)C(C)(C)C): 514 nm | emission maximum (in CC(C)=O): 513 nm | emission maximum (in CCCCCC): 516 nm | emission maximum (in CCOC(C)=O): 514 nm | emission maximum (in CO): 514 nm

Cc1cc(C)c(C2=C3C=C(/C=C/C(=O)OC(C)(C)C)C=[N+]3[B-](F)(F)n3c2ccc3N2CCCC2)c(C)c1
emission maximum (in ClCCl): 551 nm

CCCCc1ccc(-n2c3c(c4c2c2c(n4-c4ccc(CCCC)cc4)-c4ccc(C(F)(F)F)cc4NB2c2ccccc2)B(c2ccccc2)Nc2cc(C(F)(F)F)ccc2-3)cc1
emission maximum (in Cc1ccccc1): 413 nm

Cc1ccc2nc3cc4c(cc3c(-c3ccccc3)c2c1)[Si](C)(C)O[Si]4(C)C
emission maximum (in ClCCl): 504 nm

Reference: the Deep4Chem optical property database
